# From PMC3725577 (Bioorganic & medicinal chemistry letters, 2011)
# Entries after “also recorded” stand apart in the source; their conditions may differ.
# Key:
# HIV-1 NL4-3 = assay: Single round HIV infectivity in HeLa37 cells; assay type: cell-based
# HeLa37 cells = assay: Cell viability; assay type: cell-based; settings: concentrations as high as 100 µg/mL
SMILES,anti-HIV activity (in words) (HIV-1 NL4-3),cytotoxicity (in words) (HeLa37 cells)
"CC(=O)c1c(O)c2c(c(C(C)=O)c1O)OC(C)(C)CC2 [Compound 6, 6,8-diacetyl-2,2-dimethylchroman-5,7-diol]",least active,
"CC1(C)CCc2c(O)c(C(=O)CC(=O)c3ccccc3)c(O)c(C=O)c2O1 [Compound 12, 6-(1,3-Dioxo-3-phenylpropyl)-2,2-dimethyl-8-formylchroman-5,7-diol]",good activity,highest cytotoxicity; also recorded: significant cytotoxicity at the higher concentrations tested
